In the NIST ThermoML archive (doi:10.1021/je101361u):
± gives the expanded uncertainty stated by the source.

Assay: xn = mol fraction of the nth substance listed
Settings: 101.3 kPa, Liquid, Vibrating tube method

SMILES: CCOCCOCCOCC [diethylene glycol diethyl ether] + ClCCCl
- mass density (283.15 K, x2 = 0.0234): 920.54 ± 0.72 kg/m3
- mass density (283.15 K, x2 = 0.0504): 925.19 ± 0.7 kg/m3
- mass density (283.15 K, x2 = 0.0751): 929.56 ± 0.67 kg/m3
- mass density (283.15 K, x2 = 0.1009): 934.31 ± 0.65 kg/m3
- mass density (283.15 K, x2 = 0.1504): 943.66 ± 0.6 kg/m3
- mass density (283.15 K, x2 = 0.2): 953.71 ± 0.55 kg/m3
- mass density (283.15 K, x2 = 0.2546): 965.43 ± 0.51 kg/m3
- mass density (283.15 K, x2 = 0.2999): 975.65 ± 0.47 kg/m3
- mass density (283.15 K, x2 = 0.35): 987.75 ± 0.43 kg/m3
- mass density (283.15 K, x2 = 0.4006): 1000.78 ± 0.39 kg/m3
- mass density (283.15 K, x2 = 0.4502): 1014.42 ± 0.37 kg/m3
- mass density (283.15 K, x2 = 0.5002): 1029.16 ± 0.35 kg/m3
- mass density (283.15 K, x2 = 0.5499): 1044.87 ± 0.33 kg/m3
- mass density (283.15 K, x2 = 0.6): 1061.87 ± 0.32 kg/m3
- mass density (283.15 K, x2 = 0.65): 1080.19 ± 0.32 kg/m3
- mass density (283.15 K, x2 = 0.6999): 1100.05 ± 0.32 kg/m3
- mass density (283.15 K, x2 = 0.7492): 1121.14 ± 0.33 kg/m3
- mass density (283.15 K, x2 = 0.8): 1145.22 ± 0.34 kg/m3
- mass density (283.15 K, x2 = 0.85): 1171.12 ± 0.36 kg/m3
- mass density (283.15 K, x2 = 0.9): 1199.76 ± 0.39 kg/m3
- mass density (283.15 K, x2 = 0.95): 1231.56 ± 0.42 kg/m3
- mass density (283.15 K, x2 = 0.975): 1248.9 ± 0.44 kg/m3
- mass density (288.15 K, x2 = 0.0234): 915.7 ± 0.72 kg/m3
- mass density (288.15 K, x2 = 0.0504): 920.3 ± 0.69 kg/m3
- mass density (288.15 K, x2 = 0.0751): 924.64 ± 0.67 kg/m3
- mass density (288.15 K, x2 = 0.1009): 929.36 ± 0.64 kg/m3
- mass density (288.15 K, x2 = 0.1504): 938.64 ± 0.6 kg/m3
- mass density (288.15 K, x2 = 0.2): 948.62 ± 0.55 kg/m3
- mass density (288.15 K, x2 = 0.2546): 960.24 ± 0.5 kg/m3
- mass density (288.15 K, x2 = 0.2999): 970.39 ± 0.46 kg/m3
- mass density (288.15 K, x2 = 0.35): 982.41 ± 0.43 kg/m3
- mass density (288.15 K, x2 = 0.4006): 995.34 ± 0.39 kg/m3
- mass density (288.15 K, x2 = 0.4502): 1008.87 ± 0.36 kg/m3
- mass density (288.15 K, x2 = 0.5002): 1023.52 ± 0.34 kg/m3
- mass density (288.15 K, x2 = 0.5499): 1039.11 ± 0.33 kg/m3
- mass density (288.15 K, x2 = 0.6): 1056 ± 0.32 kg/m3
- mass density (288.15 K, x2 = 0.65): 1074.19 ± 0.32 kg/m3
- mass density (288.15 K, x2 = 0.6999): 1093.92 ± 0.32 kg/m3
- mass density (288.15 K, x2 = 0.7492): 1114.87 ± 0.32 kg/m3
- mass density (288.15 K, x2 = 0.8): 1138.79 ± 0.34 kg/m3
- mass density (288.15 K, x2 = 0.85): 1164.52 ± 0.36 kg/m3
- mass density (288.15 K, x2 = 0.9): 1192.98 ± 0.39 kg/m3
- mass density (288.15 K, x2 = 0.95): 1224.58 ± 0.41 kg/m3
- mass density (288.15 K, x2 = 0.975): 1241.8 ± 0.44 kg/m3
- mass density (293.15 K, x2 = 0.0234): 910.83 ± 0.71 kg/m3
- mass density (293.15 K, x2 = 0.0504): 915.41 ± 0.69 kg/m3
- mass density (293.15 K, x2 = 0.0751): 919.72 ± 0.66 kg/m3
- mass density (293.15 K, x2 = 0.1009): 924.39 ± 0.64 kg/m3
- mass density (293.15 K, x2 = 0.1504): 933.61 ± 0.59 kg/m3
- mass density (293.15 K, x2 = 0.2): 943.52 ± 0.55 kg/m3
- mass density (293.15 K, x2 = 0.2546): 955.05 ± 0.5 kg/m3
- mass density (293.15 K, x2 = 0.2999): 965.13 ± 0.46 kg/m3
- mass density (293.15 K, x2 = 0.35): 977.05 ± 0.42 kg/m3
- mass density (293.15 K, x2 = 0.4006): 989.89 ± 0.39 kg/m3
- mass density (293.15 K, x2 = 0.4502): 1003.32 ± 0.36 kg/m3
- mass density (293.15 K, x2 = 0.5002): 1017.86 ± 0.34 kg/m3
- mass density (293.15 K, x2 = 0.5499): 1033.35 ± 0.32 kg/m3
- mass density (293.15 K, x2 = 0.6): 1050.12 ± 0.32 kg/m3
- mass density (293.15 K, x2 = 0.65): 1068.18 ± 0.31 kg/m3
- mass density (293.15 K, x2 = 0.6999): 1087.77 ± 0.31 kg/m3
- mass density (293.15 K, x2 = 0.7492): 1108.58 ± 0.32 kg/m3
- mass density (293.15 K, x2 = 0.8): 1132.34 ± 0.34 kg/m3
- mass density (293.15 K, x2 = 0.85): 1157.9 ± 0.36 kg/m3
- mass density (293.15 K, x2 = 0.9): 1186.17 ± 0.39 kg/m3
- mass density (293.15 K, x2 = 0.95): 1217.56 ± 0.41 kg/m3
- mass density (293.15 K, x2 = 0.975): 1234.66 ± 0.43 kg/m3
- mass density (298.15 K, x2 = 0.0234): 905.98 ± 0.71 kg/m3
- mass density (298.15 K, x2 = 0.0504): 910.52 ± 0.68 kg/m3
- mass density (298.15 K, x2 = 0.0751): 914.8 ± 0.66 kg/m3
- mass density (298.15 K, x2 = 0.1009): 919.44 ± 0.63 kg/m3
- mass density (298.15 K, x2 = 0.1504): 928.58 ± 0.59 kg/m3
- mass density (298.15 K, x2 = 0.2): 938.42 ± 0.54 kg/m3
- mass density (298.15 K, x2 = 0.2546): 949.86 ± 0.5 kg/m3
- mass density (298.15 K, x2 = 0.2999): 959.86 ± 0.46 kg/m3
- mass density (298.15 K, x2 = 0.35): 971.69 ± 0.42 kg/m3
- mass density (298.15 K, x2 = 0.4006): 984.44 ± 0.39 kg/m3
- mass density (298.15 K, x2 = 0.4502): 997.77 ± 0.35 kg/m3
- mass density (298.15 K, x2 = 0.5002): 1012.21 ± 0.33 kg/m3
- mass density (298.15 K, x2 = 0.5499): 1027.58 ± 0.32 kg/m3
- mass density (298.15 K, x2 = 0.6): 1044.23 ± 0.31 kg/m3
- mass density (298.15 K, x2 = 0.65): 1062.16 ± 0.31 kg/m3
- mass density (298.15 K, x2 = 0.6999): 1081.63 ± 0.31 kg/m3
- mass density (298.15 K, x2 = 0.7492): 1102.29 ± 0.32 kg/m3
- mass density (298.15 K, x2 = 0.8): 1125.89 ± 0.33 kg/m3
- mass density (298.15 K, x2 = 0.85): 1151.27 ± 0.35 kg/m3
- mass density (298.15 K, x2 = 0.9): 1179.35 ± 0.38 kg/m3
- mass density (298.15 K, x2 = 0.95): 1210.52 ± 0.41 kg/m3
- mass density (298.15 K, x2 = 0.975): 1227.5 ± 0.43 kg/m3
- mass density (303.15 K, x2 = 0.0234): 901.12 ± 0.7 kg/m3
- mass density (303.15 K, x2 = 0.0504): 905.62 ± 0.68 kg/m3
- mass density (303.15 K, x2 = 0.0751): 909.87 ± 0.65 kg/m3
- mass density (303.15 K, x2 = 0.1009): 914.47 ± 0.63 kg/m3
- mass density (303.15 K, x2 = 0.1504): 923.55 ± 0.58 kg/m3
- mass density (303.15 K, x2 = 0.2): 933.31 ± 0.54 kg/m3
- mass density (303.15 K, x2 = 0.2546): 944.67 ± 0.49 kg/m3
- mass density (303.15 K, x2 = 0.2999): 954.59 ± 0.46 kg/m3
- mass density (303.15 K, x2 = 0.35): 966.34 ± 0.42 kg/m3
- mass density (303.15 K, x2 = 0.4006): 978.99 ± 0.38 kg/m3
- mass density (303.15 K, x2 = 0.4502): 992.22 ± 0.35 kg/m3
- mass density (303.15 K, x2 = 0.5002): 1006.55 ± 0.33 kg/m3
- mass density (303.15 K, x2 = 0.5499): 1021.8 ± 0.32 kg/m3
- mass density (303.15 K, x2 = 0.6): 1038.33 ± 0.31 kg/m3
- mass density (303.15 K, x2 = 0.65): 1056.14 ± 0.3 kg/m3
- mass density (303.15 K, x2 = 0.6999): 1075.47 ± 0.3 kg/m3
- mass density (303.15 K, x2 = 0.7492): 1095.99 ± 0.31 kg/m3
- mass density (303.15 K, x2 = 0.8): 1119.42 ± 0.33 kg/m3
- mass density (303.15 K, x2 = 0.85): 1144.62 ± 0.35 kg/m3
- mass density (303.15 K, x2 = 0.9): 1172.51 ± 0.38 kg/m3
- mass density (303.15 K, x2 = 0.95): 1203.45 ± 0.4 kg/m3
- mass density (303.15 K, x2 = 0.975): 1220.32 ± 0.43 kg/m3
- mass density (308.15 K, x2 = 0.0234): 896.25 ± 0.7 kg/m3
- mass density (308.15 K, x2 = 0.0504): 900.73 ± 0.67 kg/m3
- mass density (308.15 K, x2 = 0.0751): 904.95 ± 0.65 kg/m3
- mass density (308.15 K, x2 = 0.1009): 909.51 ± 0.63 kg/m3
- mass density (308.15 K, x2 = 0.1504): 918.52 ± 0.58 kg/m3
- mass density (308.15 K, x2 = 0.2): 928.2 ± 0.54 kg/m3
- mass density (308.15 K, x2 = 0.2546): 939.47 ± 0.49 kg/m3
- mass density (308.15 K, x2 = 0.2999): 949.32 ± 0.46 kg/m3
- mass density (308.15 K, x2 = 0.35): 960.97 ± 0.42 kg/m3
- mass density (308.15 K, x2 = 0.4006): 973.53 ± 0.38 kg/m3
- mass density (308.15 K, x2 = 0.4502): 986.66 ± 0.35 kg/m3
